Assay results published in patent publication US9012420B2, “Aptamer for chymase, and use thereof” (Ribomic Inc., priority 2009, dated 2015).
Oligonucleotides are written 5' to 3', each unit as a sugar letter and its base; * is a phosphorothioate linkage, no mark a phosphodiester; rarer units and linkages stand in square brackets, end groups in braces. Plain capitals give the bases only. r = 2'-OH (RNA); f = 2'-fluoro

Biological target: T1, chymase (recombinant, manufactured by SIGMA) (Homo sapiens, UniProt P23946)
T1 construct: purchased SIGMA; host or cells: yeast
T1 sequence (P23946 22-247): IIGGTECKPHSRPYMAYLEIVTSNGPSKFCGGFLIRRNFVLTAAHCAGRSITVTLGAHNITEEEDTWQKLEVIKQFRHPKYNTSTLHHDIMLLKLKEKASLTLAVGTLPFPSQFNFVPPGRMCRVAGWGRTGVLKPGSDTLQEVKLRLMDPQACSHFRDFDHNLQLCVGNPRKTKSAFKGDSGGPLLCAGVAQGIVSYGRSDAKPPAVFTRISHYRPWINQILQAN
Test: Chymase inhibitory activity using synthetic substrate Suc-Ala-Ala-Pro-Phe-MCA
Format: biochemical
In short: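 Human recombinant chymase (16.7 nM or 1.67 nM final) preincubated 5 min at 37° C., then added to nucleic acid (0.0027–2 μM serial dilutions) and 100 μM substrate in solution C. AMC fluorescence (ex 380/em 460 nm) followed 5 or 30 min at 37° C.; slope gives initial velocity, inhibition versus no-inhibitor control yields IC50.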

[1] = Table 4, same manner as Example 3, mean value for 2 to 3 measurements
[2] = Table 6, same manner as Example 3, mean value of two measurements
[3] = Table 5, same manner as Example 3, mean value of two measurements
[4] = Table 7, same manner as Example 3, mean value of two measurements
[5] = Table 3, substrate 100 μM, solution C, 37° C., mean value for 2 to 3 measurements

53 (GGGUAACUAUGGUUAGAUAGAGUUAAAAACCAUAGAAGACCC; 2'-fluoro at CU, RNA at AG, backbone not given here) [compound 53]
IC50 [1]: 0.066 ± 0.024 µM

54 (UAACUAUGGUUAGAUAGAGUUAAAAACCAUAGAAGA; 2'-fluoro at CU, RNA at AG, backbone not given here) [compound 54]
IC50 [1]: 0.051 ± 0.033 µM

55 (CUAUGGUUAGAUAGAGUUAAAAACCAUAG; 2'-fluoro at CU, RNA at AG, backbone not given here) [compound 55]
IC50 [1]: 0.055 ± 0.023 µM

56 (GGGUUAGAUAGAGUUAAAAACCC; 2'-fluoro at CU, RNA at AG, backbone not given here) [compound 56]
IC50 [1]: 0.046 ± 0.031 µM
IC50 [2]: 0.027 ± 0.002 µM

58 (GGGUUGAAGAUAUUAAAGAACCC; 2'-fluoro at CU, RNA at AG, backbone not given here) [compound 58]
IC50 [3]: > 1 µM

65 (rGrGfCrArGrAfUrArGrArGfUfUrArArArGfCfC) [compound 65]
IC50 [3]: 0.056 ± 0.046 µM

70 (GGGTTAGAUAGAGUUAAAAACCC; chemistry not given here) [compound 70]
IC50 [4]: 0.027 ± 0.004 µM

71 (GGGUUAGAUAGAGTUAAAAACCC; chemistry not given here) [compound 71]
IC50 [4]: 0.028 ± 0.005 µM

72 (GGGTTAGAUAGAGTUAAAAACCC; chemistry not given here) [compound 72]
IC50 [4]: 0.02 ± 0.002 µM

CC(C)C[C@H](NC(=O)[C@@H](NC(=O)N[C@@H](Cc1ccccc1)C(=O)O)[C@@H]1CCN=C(N)N1)C(=O)N[C@H](C=O)Cc1ccccc1 [chymostatin, reference compound]
IC50 [5]: 0.1 to 0.2 µM

GGGU(F)U(F)GAAGAU(F)AU(F)U(F)AAAGAAC(F)C(F)C(F) (GGGUUGAAGAUAUUAAAGAACCC; 2'-fluoro at CU, RNA at AG, backbone not given here) [SEQ ID NO: 58]
IC50 [3]: > 1 µM
IC50 [2]: > 1 µM
IC50 [4]: > 1 µM

B1: 13 (nucleic acid)
chain: rGrGrGrAfCrGrGfUrArGrGrArAfUfUfCfCrGfCrArAfCfCrAfUfCfCfCrGfUrArAfCfUrAfUrGrGfUfUrArGrAfUrArGrArGfUfUrArArArArAfCfCrAfUrArGrArArGrArGfCrGrGfCfCrGfC
modifications: aptamer
IC50 [5]: 0.058 ± 0.024 µM

B2: 14 (nucleic acid)
chain: rGrGrGrAfCrGrGfUrArGrGrArAfUfUfCfUfCrGfUfUfCfCfUrGrAfCrArGfCrAfUfUfUrGrArGrAfUrArGrAfUfUfUrArArAfCrArArAfCrGfCrAfCrAfUrArGrArArGrArGfCrGrGfCfCrGfC
modifications: aptamer
IC50 [5]: 0.061 ± 0.053 µM

B3: 4 (nucleic acid)
chain: rGrGrGrAfCrGrGfUrArGrGrArAfUfUfCrGfUfCfCrAfUfUfCfUrAfCrArGrAfUrArGrArGrAfUrArArArGfUrArGrArAfUfUfUrArAfCrArArArAfCrAfUrArGrArArGrArGfCrGrGfCfCrGfC
modifications: aptamer
IC50 [5]: 0.049 ± 0.003 µM
